Here are results for eight molecules from article PMC10250618, “Synthesis, structure-activity relationships and biological evaluation of benzimidazole derived sulfonylurea analogues as a new class of antagonists of P2Y1 receptor” (Frontiers in Pharmacology, 2023).

The target of one series is T1, h-P2Y4 (Homo sapiens, UniProt P51582).
T1 construct: host or cells: human 1321N1 astrocytoma cells, stably transfected
The series is described as follows: Calcium mobilization assay, h-P2Y4 transfected 1321N1 astrocytoma cells. The note with it: 500 μM UTP. It is filed as cell-based. Here is the method: (§1) Dr. Gary A. Weisman provided human-1321N1 astrocytoma cells that had been transfected by the tP2Y1R, hP2Y2R, hP2Y4R, and rP2Y6R and untransfected 1321N1 astrocytoma cells (University of Missouri Mo., Bond Life Science Center). The DMEM Dulbecco’s Modified Eagle -Medium (Gibco) was added in flasks to cultivate the cell line. 10% of the Fetal bovine serum was also added to the media together with 500 μg/mL of Geneticin (G418) and 1% of the Pen/Strep. The cells in T-75 flask were then cultured and incubated in a CO2 incubator which was maintained at (5%) and 37°C temperature until 90% of the cells were confluent. Throughout the experiment, cells were periodically checked for the confluency and strictly watched for the microbial contamination.
(§2) The FLUOstar Galaxy (BMG LABTECH GmbH, Ortenberg, Germany) microplate reader with two injectors was used to measure the Ca^2+ fluorescence of synthetic compounds. For this assay, 1321N1 transfected cells (t-P2Y1, h-P2Y2, h-P2Y4, and r-P2Y6) were cultured in T-75 flask. When cells reached the confluency of 80%–90%, they were washed with PBS and then Trypsin was added. After trypsinization for 3 min, 20,000 cells/well were allowed to seed in a black wall and 96 well clear bottom plate which was coated with Poly-D-Lysine and allowed to incubate for 24 h in 37°C, 5% CO2 incubator. After incubation, 200 μL culture media was changed with 100 μL HBSS containing Fura-2 AM which is calcium chelating dye and allowed the plate to incubate for 45 min in dark at temp of 37°C in incubator which is maintained with carbon dioxide (5% CO2). After incubation for 45 min, synthesized molecules were added to HBSS washed cells in each well of 96 well plate and re-incubated for 30 min at 37°C. In next step, injection of the endogenous ligand such as ADP through the injector was followed by excitation and emission measurements of Fura-2 AM at 380/520 nm and 340/520. Final volume of the assay per well 200 μL. IC50 values were computed for the compounds displaying more than 50% of activity using Prism 5.0 software (Graph Pad., Inc., San Diego. California, United States) by using analysis i.e., nonlinear regression ([Kassack et al., 2002]; [Ullmann et al., 2005]).
On the technique in general: Calcium flux is commonly read through the fluorescence of an indicator in the cells.

A further series deals with HEK-293 Cell Line. Kind of series: MTT assay, HEK-293. Format: cell-based. Particulars: at 50 µM; triplicate. A general note: Tetrazolium assays rely on reduction of a dye to a coloured formazan, in cell work by metabolically active cells.
For the next series, the system named is H-1321N1 Cell Line. The series is described as follows: MTT assay, non-transfected 1321N1 astrocytoma cells. It is filed as cell-based, human. The note with it: at 50 µM; non-transfected astrocytoma 1321N1 cells; triplicate. Here is the method:
(§3) A 96-well plate was used to plate 20,000 human 1321N1 astrocytoma cells and allowed for incubation for 24 h at temp of 37°C in CO2 (5%) incubator. Next to this, the prepared culture media was changed to media which was free from FBS, the test compounds were added and the incubation process was repeated. After incubation of 24 h, the serum free media from the wells was discarded, and 100 μL of the reagent i.e., MTT reagent was pipetted. Plate was then additionally incubated at 37°C for 4 h. Utilizing a microplate reader, absorbance was determined at 570 nm and 630 nm for calculation of cell viability (FLUOstarOmega Microplate Reader-BMG LABTECH GmbH, Ortenberg, Germany) ([Sauer et al., 2009]).

A further series has as its system HeLa Cell Line. Kind of series: MTT assay, HeLa. Format: cell-based. Particulars: at 50 µM; triplicate.
The target of another series is T2, t-P2Y1 (Meleagris gallopavo, UniProt P49652).
T2 construct: host or cells: human 1321N1 astrocytoma cells, stably transfected
Kind of series: Calcium mobilization assay, t-P2Y1 transfected 1321N1 astrocytoma cells. It is filed as cell-based. The note with it: for IC50: Ca2+ mobilization inhibition, transfected 1321N1 cells, read-out: IC50 ± SEM t-P2Y1. The method, then: as §1, §2

The target in the next series is T3, h-P2Y2 (Homo sapiens, UniProt P41231).
T3 construct: host or cells: human 1321N1 astrocytoma cells, stably transfected
The series is described as follows: Calcium mobilization assay, h-P2Y2 transfected 1321N1 astrocytoma cells. Format: cell-based. The note with it: 500 μM ATP; for IC50: Ca2+ mobilization inhibition, transfected 1321N1 cells, read-out: IC50 ± SEM h-P2Y2. The method, then: as §1, §2

In a further series the target is T4, r-P2Y6 (Rattus norvegicus, UniProt Q63371).
T4 construct: host or cells: human 1321N1 astrocytoma cells, stably transfected
The series is described as follows: Calcium mobilization assay, r-P2Y6 transfected 1321N1 astrocytoma cells. Format: cell-based. Here is the method: as §1, §2

Series [1] is described as follows: Aqueous solubility assay (UV absorption). It is filed as physicochemical. Here is the method:
In eppendorf tubes, over-saturated chemical solutions were prepared by mixing synthesized compound with PBS buffer (pH 7.4). To confirm compound saturation, suspensions were rapidly vortexed for 1 min, sonicated at ambient temperature for 10 min, and then incubated with overnight shaking. After that, compound suspensions were centrifuged at 15,000 RPM for 20 min. Supernatants were cautiously taken out of the tubes and filtered once more using 0.22 µm syringe filters. By using UV-vis absorption spectrometry with standard curves and an already-determined absorption extinction coefficient in the same buffer, the concentrations of the drug in the supernatants were identified.

A short description of the next series: MTT assay, HEK-293. It is filed as cell-based. Particulars: human, HEK-293 cells; at 50 µM; triplicate; read-out: HEK-293 Cell Line (%cytotoxicity ±SEM).
Series [2] in a line: MTT assay, non-transfected 1321N1 astrocytoma cells. Format: cell-based, human. The note with it: human, non-transfected 1321N1 astrocytoma cells; at 50 µM; non-transfected astrocytoma 1321N1 cells; triplicate; read-out: H-1321N1 Cell Line (%cytotoxicity ±SEM). The method, then:
as §3

The nature of the next series: MTT assay, HeLa. The note with it: human, HeLa cells; at 50 µM; triplicate; read-out: HeLa Cell Line (%cytotoxicity ±SEM). It is filed as cell-based.
In another series the target is hP2Y1. Further details: method as in Peng et al., 2018. Particulars: Figure 1, reported antagonist; ref Peng et al., 2018; cited from earlier work.
The conditions of series [3]: was reported; cited from earlier work.
Another series has as its system P2Y12. On the set-up: method as in Oestreich, 2010; Boldron et al., 2014. Particulars: Figure 1, reported antagonists; ref Oestreich, 2010; Boldron et al., 2014; cited from earlier work.
In a further series the test system is P2X3. Further details: method as in Bae et al., 2022. Particulars: Figure 1, reported antagonist; ref Bae et al., 2022; cited from earlier work.
Another series has as its target P2Y1. Particulars: Figure 1, reported antagonist; cited from earlier work.
The next series relates to hP2Y2. Further details: method as in Bano et al., 2021. The note with it: Figure 1, reported antagonist; ref Bano et al., 2021; cited from earlier work.

Converted amounts (≈) assume the structure as drawn. Structures can show the parent of a compound that is named as a salt. Where two headings read alike, the source gives them in different places.

T4 sequence (Q63371 whole entry): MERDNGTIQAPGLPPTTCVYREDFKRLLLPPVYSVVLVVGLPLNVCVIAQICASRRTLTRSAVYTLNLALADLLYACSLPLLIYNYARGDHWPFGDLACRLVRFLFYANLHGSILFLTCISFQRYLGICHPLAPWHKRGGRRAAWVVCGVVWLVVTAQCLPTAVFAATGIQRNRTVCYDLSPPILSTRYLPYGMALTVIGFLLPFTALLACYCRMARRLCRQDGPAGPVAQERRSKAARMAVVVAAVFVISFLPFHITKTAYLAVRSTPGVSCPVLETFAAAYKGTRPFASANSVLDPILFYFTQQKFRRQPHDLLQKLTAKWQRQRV
T3 sequence (P41231 whole entry): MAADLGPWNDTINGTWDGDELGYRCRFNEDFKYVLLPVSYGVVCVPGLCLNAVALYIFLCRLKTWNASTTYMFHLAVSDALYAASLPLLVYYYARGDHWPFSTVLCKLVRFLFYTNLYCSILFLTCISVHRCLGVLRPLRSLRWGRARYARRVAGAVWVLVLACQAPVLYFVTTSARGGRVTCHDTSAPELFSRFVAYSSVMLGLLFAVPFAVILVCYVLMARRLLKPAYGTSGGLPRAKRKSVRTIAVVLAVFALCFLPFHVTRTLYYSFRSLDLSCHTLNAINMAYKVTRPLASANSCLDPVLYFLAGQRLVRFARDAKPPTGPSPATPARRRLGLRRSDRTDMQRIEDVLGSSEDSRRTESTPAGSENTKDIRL
T2 sequence (P49652 whole entry): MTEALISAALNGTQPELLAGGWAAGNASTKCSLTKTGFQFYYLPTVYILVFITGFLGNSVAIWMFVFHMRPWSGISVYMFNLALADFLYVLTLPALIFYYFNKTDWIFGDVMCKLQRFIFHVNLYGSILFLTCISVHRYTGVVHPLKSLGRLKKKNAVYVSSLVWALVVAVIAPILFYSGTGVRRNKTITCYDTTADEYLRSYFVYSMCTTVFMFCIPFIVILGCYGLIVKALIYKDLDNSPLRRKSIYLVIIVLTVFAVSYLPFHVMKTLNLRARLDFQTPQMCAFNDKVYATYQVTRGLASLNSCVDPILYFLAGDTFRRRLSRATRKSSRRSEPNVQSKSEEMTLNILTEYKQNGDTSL
T1 sequence (P51582 whole entry): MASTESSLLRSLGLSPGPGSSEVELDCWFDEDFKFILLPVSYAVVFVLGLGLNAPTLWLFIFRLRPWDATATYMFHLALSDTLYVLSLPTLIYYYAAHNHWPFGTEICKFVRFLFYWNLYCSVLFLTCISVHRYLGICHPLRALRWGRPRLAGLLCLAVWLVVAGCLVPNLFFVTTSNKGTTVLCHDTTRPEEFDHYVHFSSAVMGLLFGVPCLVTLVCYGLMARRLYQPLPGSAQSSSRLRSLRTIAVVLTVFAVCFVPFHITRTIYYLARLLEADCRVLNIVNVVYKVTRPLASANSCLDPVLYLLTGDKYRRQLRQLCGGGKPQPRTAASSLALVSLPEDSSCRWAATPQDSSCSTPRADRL

Consider “2-Amino-5-nitro-N-((4-nitrophenyl)sulfonyl)-1H-benzo [d]imidazole-1-carbox amide [1d]”, for which the “% Inhibition h-P2Y4” value at h-P2Y4 (final conc of 100 μM) was determined as 48%. Also, in the series on HEK-293 Cell Line, the “HEK-293 Cell Line (%cytotoxicity ±SEM)” value worked out at 20.3 ± 0.6%. Further, the “H-1321N1 Cell Line (%cytotoxicity ±SEM)” value in the series with H-1321N1 Cell Line turned out to be 15.9 ± 0.3%. In the series with HeLa Cell Line, the “HeLa Cell Line (%cytotoxicity ±SEM)” value is 28.3 ± 0.4%. Further, the “% Inhibition t-P2Y1” value on t-P2Y1 (final conc of 100 μM, 100 μM ADP) came to 43%. Also, the “% Inhibition h-P2Y2” value at h-P2Y2 (final conc of 100 μM) was 41%. Also, the “r-P2Y6 % Inhibition” value at r-P2Y6 (Supplementary Table 2) worked out at 39%. Further, the “% Inhibition r-P2Y6” value at r-P2Y6 (final conc of 100 μM, 100 μM of UDP) was 39%.
For the molecule `Nc1nc2cc(Cl)ccc2n1C(=O)NS(=O)(=O)c1cc(Cl)cc(Cl)c1O` [1h, 2-Amino-5-chloro-N-((3,5-dichloro-2-hydroxyphenyl)sulfonyl)-1H-benzo [d]imidazole-1-carboxamide], the melting point (in general, the temperature, or range, at which the solid turns liquid) was in the range of 124 to 126 °C. The IC50 (commonly the concentration that inhibits the measured activity by half) at h-P2Y4 (Ca2+ mobilization inhibition, transfected 1321N1 cells, read-out: IC50 ± SEM h-P2Y4) was determined as 910 ± 40 nM. In addition, the solubility (usually the dissolved amount per volume that the medium holds) in series [1] (Figure 7, UV absorption at 384 nm) is 0.287 mg/mL (≈ 659 µM). The solubility in series [1] (aqueous buffer, thermodynamic from solid, PBS buffer (pH 7.4), UV absorption spectroscopy, read-out: aqueous solubility) was 0.287 mg/mL (≈ 659 µM). In addition, the cytotoxicity at 24 h, 50 µM in “MTT assay, HEK-293” was 27.4 ± 1.2%. The cytotoxicity at 24 h, 50 µM in series [2] turned out to be 32.8 ± 0.7%. In the series “MTT assay, HeLa”, the cytotoxicity at 24 h, 50 µM stood at 22.3 ± 0.8%. Moreover, the IC50 on t-P2Y1 (100 μM ADP) turned out to be 190 ± 40 nM. For the same molecule, the “inhibition of P2Y2 less as compared to P2Y1” value on t-P2Y1 (P2Y2 versus P2Y1) is given as 20 fold. The IC50 at h-P2Y2 amounted to 4.13 ± 1.02 µM. Further, the “activity against P2Y6 in words” value on r-P2Y6 is “inactive”. The inhibition (usually the share of the control response that was lost under treatment) at 100 µM at r-P2Y6 (1321-N1, final conc of 100 μM, 100 μM of UDP) was found to be 34%.
In the case of `CC(C)(C)c1ccccc1Oc1ncccc1NC(=O)Nc1ccc(OC(F)(F)F)cc1` [BPTU, 1-(2-(2-tert-butyl-phenoxy)pyridin-3-yl)-3–4-(trifluoromethoxy) phenylurea], the Ki – broadly, the equilibrium dissociation constant of an inhibitor or competing ligand from its target – on hP2Y1 is 6 nM. Further, the solubility in water result in series [3] is on record as “less than 0.1 mg/mL”.
Regarding `CNc1cc2[nH]c(=O)n(-c3ccc(NC(=O)NS(=O)(=O)c4ccc(Cl)s4)cc3)c(=O)c2cc1F` [Elinogrel], in the series on P2Y12, the IC50 is 20 nM.
`Cc1nc2c([nH]1)C(=O)C(Cl)=C(Nc1ccc(F)c(F)c1)C2=O` [KCB77033]: the IC50 in the series on P2X3 is 1030 nM.
On to `CNc1nc(I)nc2c1ncn2C1CC(OP(=O)(O)O)C2(COP(=O)(O)O)CC12` (centres unmarked) [MRS2500], for which, on P2Y1, the Ki is 0.78 nM.
As for `CCCC(=O)c1cnn(-c2ccc(NC(=O)c3cn(CC(=O)N4CCNCC4)c4ccc(Cl)cc34)nn2)c1C` [SAR 216471 hydrochloride], the half-maximal inhibitory concentration (IC50) in the series with P2Y12 was 17 nM.
As for `Cc1ccc(C(=O)Nc2ccc(S(=O)(=O)O)c3cc(S(=O)(=O)O)cc(S(=O)(=O)O)c23)cc1NC(=O)c1cccc(NC(=O)Nc2cccc(C(=O)Nc3cc(C(=O)Nc4ccc(S(=O)(=O)O)c5cc(S(=O)(=O)O)cc(S(=O)(=O)O)c45)ccc3C)c2)c1` [Suramin, reference compound], the cytotoxicity at 24 h, 50 µM was determined as 11.1 ± 0.2% in the series “MTT assay, HEK-293”; 12.3 ± 0.2% in [2]; 37.5 ± 0.2% in the series “MTT assay, HeLa”. Further, the IC50 was 48 µM in the series with hP2Y2, 150 ± 10 nM on t-P2Y1 (100 μM ADP) and 3.31 ± 0.08 µM at h-P2Y2.
